According to patent US8796256B2 (Janssen Pharmaceutica NV, priority 2010, dated 2014):

Molecular target: T1, ERR1 (also known as ERR-α or ERR-1) (Homo sapiens, UniProt P11474)
T1 sequence (P11474 193-421 limits assumed): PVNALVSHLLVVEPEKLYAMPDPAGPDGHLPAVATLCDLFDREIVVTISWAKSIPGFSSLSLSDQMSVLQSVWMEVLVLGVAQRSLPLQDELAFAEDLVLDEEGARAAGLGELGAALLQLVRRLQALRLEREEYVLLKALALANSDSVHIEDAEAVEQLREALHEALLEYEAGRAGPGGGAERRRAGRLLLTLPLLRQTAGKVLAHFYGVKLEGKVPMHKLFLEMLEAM
Experiment: TR-FRET assay (disruption of co-activator peptide binding to ERR1 LBD)
Assay type: biochemical
Conditions: 6 nM 6His-ERR1LBD, 6 nM GST-SRC-2 peptide; average of 3 independent experiments
Procedure: Time-Resolved Fluorescence Resonance Energy Transfer (TR-FRET) experiments were performed to examine the functional response of ERR1 (also known as ERR-α or ERR-1) ligands. The TR-FRET assay described herein relied on the conformation of ERR1 for binding to a co-activator peptide: when a test compound binds to ERR1 and alters its conformation, it can disrupt the binding of the co-activator peptide. The components of this homogeneous secondary assay included: the ^6His-tagged-ERR1LBD, a GST-labeled-hSRC2 co-activator polypeptide and a fluorescent donor/acceptor pair from CIS bio international htrf/bioassays (Bedford, Mass.) using both an α-GST Europium (Eu) Cryptate label and an α^6His-XL665 (allophycocyanin) fluorophore.
For TR-FRET measurements, the reaction was buffered in 25 mM Tris pH 8, 2.5 mM Hepes, 20 mM KCl, 1 mM DTT, and 0.05 mg/mL BSA (delipidated). The final concentrations of reagents were 6 nM of ERR1LBD, 6 nM GST-SRC-2 peptide, 30 nM Eu cryptate, and 7.5 nM a^6His-XL665. Reactions were allowed to reach equilibrium at 25° C. for 4-18 h before collecting data on the Analyst from LJL Biosystems (Molecular Devices Sunnyvale, Calif.). […] Dose response curves were fitted using a hyperbolic equation and the data reported is the average of 3 independent experiments.

| Structure (SMILES) | EC50 [nM] |
| --- | --- |
| COCCN1CCN(N2C(=O)S/C(=C\c3ccc4c(cnn4Cc4ccc(Cl)cc4C(F)(F)F)c3)C2=O)CC1 [Compound 352, (5Z)-5-({1-[4-Chloro-2-(trifluoromethyl)benzyl]-1H-indazol-5-yl}methylidene)-3-[4-(2-methoxyethyl)piperazin-1-yl]-1,3-thiazolidine-2,4-dione] | 25 |
| N[C@@H]1CCCC[C@H]1N1C(=O)S/C(=C\c2ccc3c(cnn3Cc3ccc(Cl)cc3C(F)(F)F)c2)C1=O [Compound 174, (5Z)-3-[(1R,2R)-2-Aminocyclohexyl]-5-({1-[4-chloro-2-(trifluoromethyl)benzyl]-1H-indazol-5-yl}methylidine)-1,3-thiazolidine-2,4-dione] | 150 |
| O=C1S/C(=C\c2ccc3c(cnn3Cc3ccc(Cl)cc3C(F)(F)F)c2)C(=O)N1CCN1CC(F)(F)C1 [Compound 75, (5Z)-5-({1-[4-Chloro-2-(trifluoromethyl)benzyl]-1H-indazol-5-yl}methylidene)-3-[2-(3,3-difluoroazetidin-1-yl)ethyl]-1,3-thiazolidine-2,4-dione] | 127 |
| [2H]C([2H])([2H])N1CC[C@@H](N2C(=O)S/C(=C\c3ccc4c(cnn4Cc4ccc(Cl)cc4C(F)(F)F)c3)C2=O)[C@H](F)C1 (relative stereo) [Compound 329, (5Z)-5-({1-[4-Chloro-2-(trifluoromethyl)benzyl]-1H-indazol-5-yl}methylidene)-3-[trans-3-fluoro-1-(1,1,1-d3)-methylpiperidin-4-yl]-1,3-thiazolidine-2,4-dione] | 15 |
| CCOC(=O)[C@@H]1CCC[C@H]1N1C(=O)S/C(=C\c2ccc3c(cnn3Cc3ccc(Cl)cc3C(F)(F)F)c2)C1=O [Compound 141, Ethyl (1R,2R)-2-[(5Z)-5-({1-[4-chloro-2-(trifluoromethyl)benzyl]-1H-indazol-5-yl}methylidene)-2,4-dioxo-1,3-thiazolidin-3-yl]cyclopentanecarboxylate] | 183 |
| COC(=O)C(Cc1cccnc1)N1C(=O)S/C(=C\c2ccc3c(cnn3Cc3ccc(Cl)cc3C(F)(F)F)c2)C1=O (centres unmarked) [Compound 217, Methyl 2-[(5Z)-5-({1-[4-chloro-2-(trifluoromethyl)benzyl]-1H-indazol-5-yl}methylidene)-2,4-dioxo-1,3-thiazilidin-3-yl]-3-pyridin-3-ylpropanoate] | 41 |
| O=C1S/C(=C\c2ccc3c(cnn3Cc3ccc(C(F)(F)F)cc3C(F)(F)F)c2)C(=O)N1C1CCNCC1 [Compound 67, (5Z)-5-({1-[2,4-Bis(trifluoromethyl)benzyl]-1H-indazol-5-yl}methylidene)-3-piperidin-4-yl-1,3-thiazolidine-2,4-dione] | 620 |
| O=C1S/C(=C\c2ccc3c(cnn3Cc3ccc(C(F)(F)F)cc3C(F)(F)F)c2)C(=O)N1[C@@H]1CCNC[C@H]1F (relative stereo) [Compound 274, (5Z)-5-({1-[2,4-Bis(trifluoromethyl)benzyl]-1H-indazol-5-yl}methylidene)-3-(trans-3-fluoropiperidin-4-yl)-1,3-thiazolidine-2,4-dione] | 88 |
| O=C1S/C(=C\c2ccc3c(cnn3Cc3ccc(Cl)cc3C(F)(F)F)c2)C(=O)N1C[C@@H]1CCCN2CCCC[C@H]12 [Compound 206, (5Z)-5-({1-[4-Chloro-2-(trifluoromethyl)benzyl]-1H-indazol-5-yl}methylidene)-3-[(1S,9aR)-octahydro-2H-quinolizin-1-ylmethyl]-1,3-thiazolidine-2,4-dione] | 97 |
| O=C(CN1C(=O)S/C(=C\c2ccc3c(c2)nnn3Cc2ccc(Cl)cc2C(F)(F)F)C1=O)NS(=O)(=O)N1CCCC1 [Compound 268, 2-[(5Z)-5-({1-[4-Chloro-2-(trifluoromethyl)benzyl]-1H-benzotriazol-5-yl}methylidene)-2,4-dioxo-1,3-thiazolidin-3-yl]-N-(pyrrolidin-1-ylsulfonyl)acetamide] | 46 |
| O=C1S/C(=C\c2ccc3c(cnn3Cc3ccc(Cl)cc3C(F)(F)F)c2)C(=O)N1[C@@H]1CCN(CCO)C[C@H]1F (relative stereo) [Compound 327, (5Z)-5-({1-[4-Chloro-2-(trifluoromethyl)benzyl]-1H-indazol-5-yl}methylidene)-3-[trans-3-fluoro-1-(2-hydroxyethyl)piperidin-4-yl]-1,3-thiazolidine-2,4-dione] | 21 |
| O=C1S/C(=C\c2ccc3c(cnn3[C@H]3CCc4cc(Cl)ccc43)c2)C(=O)N1CCN1CCCC1 [Compound 172, (5Z)-5-({1-[(1S)-5-Chloro-2,3-dihydro-1H-inden-1-yl]-1H-indazol-5-yl}methylidene)-3-(2-pyrrolidin-1-ylethyl)-1,3-thiazolidine-2,4-dione] | 300 |
| NS(=O)(=O)CN1C(=O)S/C(=C\c2ccc3c(cnn3Cc3ccc(Cl)cc3C(F)(F)F)c2)C1=O [Compound 165, 1-[(5Z)-5-({1-[4-Chloro-2-(trifluoromethyl)benzyl]-1H-indazol-5-yl}methylidene)-2,4-dioxo-1,3-thiazolidin-3-yl]methanesulfonamide] | 34 |
| N[C@H]1CCC[C@H](CN2C(=O)S/C(=C\c3ccc4c(cnn4Cc4ccc(Cl)cc4C(F)(F)F)c3)C2=O)C1 [Compound 105, (5Z)-3-{[(1S,3S)-3-Aminocyclohexyl]methyl}-5-({1-[4-chloro-2-(trifluoromethyl)benzyl]-1H-indazol-5-yl}methylidene)-1,3-thiazolidine-2,4-dione] | 68 |
| CN1CCC(N2C(=O)S/C(=C\c3ccc4c(cnn4Cc4ccc(Cl)cc4C(F)(F)F)c3)C2=O)C(=O)C1 (centres unmarked) [Compound 342, (5Z)-5-({1-[4-Chloro-2-(trifluoromethyl)benzyl]-1H-indazol-5-yl}methylidene)-3-(1-methyl-3-oxopiperidin-4-yl)-1,3-thiazolidine-2,4-dione] | 65 |
| CC(=O)NS(=O)(=O)CN1C(=O)S/C(=C\c2ccc3c(cnn3Cc3ccc(C(F)(F)F)cc3C(F)(F)F)c2)C1=O [Compound 71, N-({[(5Z)-5-({1-[2,4-Bis(trifluoromethyl)benzyl]-1H-indazol-5-yl}methylidene)-2,4-dioxo-1,3-thiazolidin-3-yl]methyl}sulfonyl)acetamide] | 87 |
| O=C1S/C(=C\c2ccc3c(cnn3Cc3ccc(Cl)cc3C(F)(F)F)c2)C(=O)N1CCNS(=O)(=O)N1CCCC1 [Compound 399, N-{2-[(5Z)-5-({1-[4-Chloro-2-(trifluoromethyl)benzyl]-1H-indazol-5-yl}methylidene)-2,4-dioxo-1,3-thiazolidin-3-yl]ethyl}pyrrolidine-1-sulfonamide] | 79 |
| O=C1S/C(=C\c2ccc3c(cnn3Cc3ccc(Cl)cc3C(F)(F)F)c2)C(=O)N1[C@@H]1CNCC[C@@H]1F (relative stereo) [Compound 199, (5Z)-5-({1-[4-Chloro-2-(trifluoromethyl)benzyl]-1H-indazol-5-yl}methylidene)-3-(cis-4-fluoropiperidin-3-yl)-1,3-thiazolidine-2,4-dione] | 15 |
| CN1CCCC(N2C(=O)S/C(=C\c3ccc4c(cnn4Cc4ccc(Cl)cc4C(F)(F)F)c3)C2=O)C1 (centres unmarked) [Compound 136, (5Z)-5-({1-[4-Chloro-2-(trifluoromethyl)benzyl]-1H-indazol-5-yl}methylidene)-3-(1-methylpiperidin-3-yl)-1,3-thiazolidine-2,4-dione] | 35 |
| CCN1CC[C@@H](N2C(=O)S/C(=C\c3ccc4c(cnn4Cc4ccc(Cl)cc4C(F)(F)F)c3)C2=O)[C@@H](F)C1 (relative stereo) [Compound 332, (5Z)-5-({1-[4-Chloro-2-(trifluoromethyl)benzyl]-1H-indazol-5-yl}methylidene)-3-[cis-1-ethyl-3-fluoropiperidin-4-yl]-1,3-thiazolidine-2,4-dione] | 110 |
| O=C(O)[C@H]1CCCN1CCN1C(=O)S/C(=C\c2ccc3c(ccn3Cc3ccc(C(F)(F)F)cc3C(F)(F)F)c2)C1=O [Compound 248, 1-{2-[(5Z)-5-({1-[2,4-Bis(trifluoromethyl)benzyl]-1H-indol-5-yl}methylidene)-2,4-dioxo-1,3-thiazolidin-3-yl]ethyl}-D-proline] | 290 |
| O=C(O)CN1C(=O)S/C(=C\c2ccc3c(c2)c(-c2ccc(F)cc2)nn3Cc2ccc(Cl)cc2C(F)(F)F)C1=O [Compound 408, [(5Z)-5-({1-[4-Chloro-2-(trifluoromethyl)benzyl]-3-(4-fluorophenyl)-1H-indazol-5-yl}methylidene)-2,4-dioxo-1,3-thiazolidin-3-yl]acetic acid] | 153 |
| CC(=O)N1CCN(CCN2C(=O)S/C(=C\c3ccc4c(cnn4Cc4ccc(Cl)cc4C(F)(F)F)c3)C2=O)CC1 [Compound 117, (5Z)-3-[2-(4-Acetylpiperazin-1-yl)ethyl]-5-({1-[4-chloro-2-(trifluoromethyl)benzyl]-1H-indazol-5-yl}methylidene)-1,3-thiazolidine-2,4-dione] | 86 |
